{"source": "patent US8889701B1", "about": "“Substituted (S)-(2R,3R,5R)-3-hydroxy-(5-pyrimidin-1-yl)tetrahydrofuran-2-ylmethyl aryl phosphoramidate” (Alla Chem, LLC, priority 2013, dated 2014)", "data": [{"tested_on": "HCV replicon (genotype 1b, Con1 isolate) in human hepatoma cell line Huh7", "test": "HCV replicon assay (antiviral activity, anti-HCV core ELISA readout)", "format": "cell-based", "conditions": "Hepatitis C virus, Huh-7, 72 h, read-out: EC50, activity against HCV genotype 1b", "procedure": "The HCV replicon assay was used to determine the antiviral activity of substituted phosphoramidic acid esters of the general formula 1, 1.1, 1.2, 2, 2.1, and 2.2 (test compounds). The test cell line used in the HCV Replicon Assay was a human hepatoma cell line Huh7 incorporating the HCV replicon (genotype 1b, Con1 isolate). 96-well plates were seeded with cells at a density of 7.5×10^3 cells per well in 50 μl of assay media. Test compound stock solution was made up freshly in assay medium (DMEM 1×, Cellgro; cat. #10-013-CV) as a 2× stock. A total of 11 serial 3-fold dilutions of test compounds were prepared from the 2× stock in assay media ranging from 20 nM-0.2 pM final concentrations. At least 4 hours after cells were seeded, compound treatment was initiated by adding 50 μl of compound dilution to the plates. […] The final DMSO concentration was 0.5%. Cells and inhibitors incubated for 3 days at 37° C./5% CO2. Media was removed from the plates via gentle tapping. Cells were fixed with 100 μl 1:1 acetone:methanol for 1 minute, washed three times with PBS buffer, and then blocked with 150 μl/well 10% Fetal Bovine Serum (FBS) in PBS for 1 hour at room temperature. Cells were washed three times with PBS buffer, and incubated with 100 μl/well anti-hepatitis C core mAb (Affinity BioReagents; cat. # MA1-080, 1 mg/ml stock diluted 1:4,000 in 10% FBS-PBS) for 2 hours at 37° C. Cells were washed three times with PBS and incubated with 100 μl/well HRP-Goat Anti-Mouse antibody (diluted 1:3.500 in 10% FBS-PBS) for 1 hour at 37° C. Cells were washed three times with PBS and developed with 100 μl/well OPD solution (1 OPD tablet+12 ml citrate/phosphate buffer+5 μl 30% H2O2 per plate) for 30 minutes in the dark at room temperature. The reaction was stopped with 100 μl/well of 2N H2SO4, and absorbance measured at A490 X on a Victor^3 V 1420 multilabel counter (Perkin Elmer). The EC50 values were calculated for test compounds from the resulting best-fit equations determined by Xlfit software.", "units": {"EC50": "nM"}, "values": [{"compound": "CC(=O)O[C@@H]1[C@@H](COP(=O)(N[C@H]2CCOC2=O)Oc2ccccc2)O[C@@H](n2ccc(N)nc2=O)C1(F)F", "note": "(stereo partly drawn) [1.2.(2), (2R,3R,5R)-5-(4-amino-2-oxopyrimidin-1(2H)-yl)-4,4-difluoro-2-((((S)-2-oxotetrahydrofuran-3-ylamino)(phenoxy)phosphoryloxy)methyl)tetrahydrofuran-3-yl acetate]", "EC50": 27}, {"compound": "CC(=O)Nc1ccn([C@@H]2O[C@H](CO[P@@](=O)(N[C@H]3CCOC3=O)Oc3ccccc3)[C@@H](OC(C)=O)C2(F)F)c(=O)n1", "note": "[1(4), (2R,3R,5R)-5-(4-acetamido-2-oxopyrimidin-1(2H)-yl)-4,4-difluoro-2-(((S)—((S)-2-oxotetrahydrofuran-3-ylamino)(phenoxy)phosphoryloxy)methyl)tetrahydrofuran-3-yl acetate]", "EC50": 42.1}, {"compound": "O=C1OCCC1NP(=O)(OC[C@H]1O[C@@H](n2ccc(=O)[nH]c2=O)C(F)(F)[C@@H]1O)Oc1ccccc1", "note": "(stereo partly drawn) [1.1.(1), ((2R,3R,5R)-5-(2,4-dioxo-3,4-dihydropyrimidin-1(2H)-yl)-4,4-difluoro-3-hydroxytetrahydrofuran-2-yl)methyl phenyl 2-oxotetrahydrofuran-3-ylphosphoramidate]", "EC50": 459}, {"compound": "CN1CCC(N[P@](=O)(OC[C@H]2O[C@@H](n3ccc(N)nc3=O)C(F)(F)[C@@H]2O)Oc2ccccc2)C1=O", "note": "(some centres unmarked) [2.2.(1)]", "EC50": 219}, {"compound": "CC(C)OC(=O)[C@H](C)NP(=O)(OC[C@H]1O[C@@H](n2ccc(=O)[nH]c2=O)[C@](C)(F)[C@@H]1O)Oc1ccccc1", "note": "(some centres unmarked) [PSI-7851, reference compound]", "EC50": 59.4}, {"compound": "C[C@@]1(F)[C@H](O)[C@@H](COP(=O)(N[C@H]2CCOC2=O)Oc2ccccc2)O[C@H]1n1ccc(=O)[nH]c1=O", "note": "(stereo partly drawn) [1.1.(2), ((2R,3R,4R,5R)-5-(2,4-dioxo-3,4-dihydropyrimidin-1(2H)-yl)-4-fluoro-3-hydroxy-4-methyltetrahydrofuran-2-yl)methyl phenyl (S)-2-oxotetrahydrofuran-3-ylphosphoramidate]", "EC50": 274}, {"compound": "Nc1ccn([C@@H]2O[C@H](COP(=O)(N[C@H]3CCOC3=O)Oc3ccccc3)[C@@H](O)C2(F)F)c(=O)n1", "note": "(some centres unmarked) [1.2.(1)]", "EC50": 19.8}, {"compound": "CN1CCC(NP(=O)(OC[C@H]2O[C@@H](n3ccc(=O)[nH]c3=O)C(F)(F)[C@@H]2O[Si](C)(C)C(C)(C)C)Oc2ccccc2)C1=O", "note": "(stereo partly drawn) [1.1.(4), ((2R,3R,5R)-3-(tert-butyldimethylsilyloxy)-5-(2,4-dioxo-3,4-dihydropyrimidin-1(2H)-yl)-4,4-difluorotetrahydrofuran-2-yl)methyl phenyl 1-methyl-2-oxopyrrolidin-3-ylphosphoramidate]", "EC50": 40.5}, {"compound": "CN1CCCC(NP(=O)(OC[C@H]2O[C@@H](n3ccc(N)nc3=O)C(F)(F)[C@@H]2O)Oc2ccccc2)C1=O", "note": "(stereo partly drawn) [1(8), ((2R,3R,5R)-5-(4-amino-2-oxopyrimidin-1(2H)-yl)-4,4-difluoro-3-hydroxytetrahydrofuran-2-yl)methyl phenyl 1-methyl-2-oxopiperidin-3-ylphosphoramidate]", "EC50": 873}, {"compound": "CN1CCCC(NP(=O)(OC[C@H]2O[C@@H](n3ccc(NC(=O)OCc4ccccc4)nc3=O)C(F)(F)[C@@H]2OC(=O)OCc2ccccc2)Oc2ccccc2)C1=O", "note": "(stereo partly drawn) [1(7), benzyl 1-((2R,4R,5R)-4-(benzyloxycarbonyloxy)-3,3-difluoro-5-(((1-methyl-2-oxopiperidin-3-ylamino)(phenoxy)phosphoryloxy)methyl)tetrahydrofuran-2-yl)-2-oxo-1,2-dihydropyrimidin-4-ylcarbamate]", "EC50": 552}]}, {"tested_on": "HCV replicon (genotype 1b, Con1 isolate) in human hepatoma cell line Huh7", "test": "not given", "conditions": "literature value, Murakami et al., J. Biol. Chem. 285(45), 34337-34347 (2010); read-out: EC50 of known inhibitor PSI-7851 (literature); cited from earlier work", "units": {"EC50": "nM"}, "values": [{"compound": "CC(C)OC(=O)[C@H](C)NP(=O)(OC[C@H]1O[C@@H](n2ccc(=O)[nH]c2=O)[C@](C)(F)[C@@H]1O)Oc1ccccc1", "note": "(some centres unmarked) [PSI-7851, reference compound]", "EC50": 75}]}]}
